In ChEMBL document CHEMBL2163241, “Human neutrophil elastase phosphonic inhibitors with improved potency of action” (J Med Chem, 2012):

Assays:
[1] = biological target: Pancreatic elastase (Sus scrofa) (UniProt P08419+P00772); assay: Inhibition of porcine pancreatic elastase at 25 uM assessed as Kinact/Ki ratio incubated for 15 mins by spectrofluorometry; format: protein assay
[2] = biological target: T1, Neutrophil elastase (Homo sapiens) (UniProt P08246); assay: Inhibition of human leukocyte elastase at 25 uM assessed as Kinact/Ki ratio incubated for 15 mins by spectrofluorometry
T1 sequence (whole entry): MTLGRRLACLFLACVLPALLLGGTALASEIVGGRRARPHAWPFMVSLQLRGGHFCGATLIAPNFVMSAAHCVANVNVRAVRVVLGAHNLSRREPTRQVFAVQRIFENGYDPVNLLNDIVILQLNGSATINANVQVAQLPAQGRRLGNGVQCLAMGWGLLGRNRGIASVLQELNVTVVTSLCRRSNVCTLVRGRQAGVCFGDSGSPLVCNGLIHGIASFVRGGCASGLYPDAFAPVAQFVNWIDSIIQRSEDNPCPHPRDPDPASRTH

[3] = Inhibition of trypsin at 25 uM assessed as Kinact/Ki ratio incubated for 15 mins by spectrofluorometry
[4] = Inhibition of chymotrypsin at 25 uM assessed as Kinact/Ki ratio incubated for 15 mins by spectrofluorometry

| SMILES | Ratio [1] [M⁻¹ s⁻¹] | Ratio [2] [M⁻¹ s⁻¹] | Ratio [3] [M⁻¹ s⁻¹] | Ratio [4] [M⁻¹ s⁻¹] | inhibition [3] [%] | inhibition [4] [%] |
| --- | --- | --- | --- | --- | --- | --- |
| COc1ccc(C(=O)N[C@H](C(=O)N2CCC[C@H]2C(=O)N[C@@H](C(C)C)P(=O)(Oc2ccc(SC)cc2)Oc2ccc(SC)cc2)C(C)C)cc1 | 6700 | 540000 | < 50 | 100 | – | – |
| COc1ccc(C(=O)N[C@H](C(=O)N2CCC[C@H]2C(=O)N[C@H](C(C)C)P(=O)(Oc2ccc(SC)cc2)Oc2ccc(SC)cc2)C(C)C)cc1 | < 50 | 4800 | – | < 50 | < 5 | – |
| CSc1ccc(OP(=O)(Oc2ccc(SC)cc2)[C@@H](NC(=O)[C@@H]2CCCN2C(=O)[C@@H](NC(=O)Cn2cc(C)c(=O)n(CC(=O)O)c2=O)C(C)C)C(C)C)cc1 | 243000 | 1.76e+06 | 280 | 44700 | – | – |
| CSc1ccc(OP(=O)(Oc2ccc(SC)cc2)[C@@H](NC(=O)[C@@H]2CCCN2C(=O)[C@@H](NC(=O)OC(C)(C)C)C(C)C)C(C)C)cc1 | 22300 | 431000 | < 50 | 850 | – | – |
| CSc1ccc(OP(=O)(Oc2ccc(SC)cc2)[C@H](NC(=O)[C@@H]2CCCN2C(=O)[C@@H](NC(=O)COc2ccc(OCC(=O)O)cc2)C(C)C)C(C)C)cc1 | 85 | 1550 | < 50 | < 50 | – | – |
| CSc1ccc(OP(=O)(Oc2ccc(SC)cc2)[C@H](NC(=O)[C@@H]2CCCN2C(=O)[C@@H](NC(=O)Cn2cc(C)c(=O)n(CC(=O)O)c2=O)C(C)C)C(C)C)cc1 | 300 | 4100 | – | < 50 | < 5 | – |
| CSc1ccc(OP(=O)(Oc2ccc(SC)cc2)[C@H](NC(=O)[C@@H]2CCCN2C(=O)[C@@H](NC(=O)Cn2ccc(=O)n(CC(=O)O)c2=O)C(C)C)C(C)C)cc1 | 200 | 2000 | – | < 50 | < 5 | – |
| CSc1ccc(OP(=O)(Oc2ccc(SC)cc2)[C@H](NC(=O)[C@@H]2CCCN2C(=O)[C@@H](NC(=O)OC(C)(C)C)C(C)C)C(C)C)cc1 | < 50 | 2650 | – | < 50 | < 5 | – |
| CC(C)C(NC(=O)[C@@H]1CCCN1C(=O)[C@@H](NC(=O)OC(C)(C)C)C(C)C)P(=O)(Oc1ccc(C(C)(C)C)cc1)Oc1ccc(C(C)(C)C)cc1 (mixture of isomers) | 700 | 3450 | – | – | < 5 | < 5 |
| CC(C)C(NC(=O)[C@@H]1CCCN1C(=O)[C@@H](NC(=O)OC(C)(C)C)C(C)C)P(=O)(Oc1ccc(Cl)cc1)Oc1ccc(Cl)cc1 (mixture of isomers) | 5000 | 92100 | < 50 | 250 | – | – |
| CC(C)CC(NC(=O)[C@@H]1CCCN1C(=O)[C@@H](NC(=O)OC(C)(C)C)C(C)C)P(=O)(Oc1ccc(Cl)cc1)Oc1ccc(Cl)cc1 (mixture of isomers) | 12800 | 3400 | < 50 | 18100 | – | – |
| CC(C)CC(NC(=O)[C@@H]1CCCN1C(=O)[C@@H](NC(=O)OC(C)(C)C)C(C)C)P(=O)(Oc1ccccc1)Oc1ccccc1 (mixture of isomers) | 1300 | 325 | < 50 | 1900 | – | – |
| CC(C)c1ccc(OP(=O)(Oc2ccc(C(C)C)cc2)C(NC(=O)[C@@H]2CCCN2C(=O)[C@@H](NC(=O)OC(C)(C)C)C(C)C)C(C)C)cc1 (mixture of isomers) | 2000 | 4200 | < 50 | < 50 | – | – |
| CCC(NC(=O)[C@@H]1CCCN1C(=O)[C@@H](NC(=O)OC(C)(C)C)C(C)C)P(=O)(Oc1ccc(C(C)C)cc1)Oc1ccc(C(C)C)cc1 (mixture of isomers) | 580 | < 50 | < 50 | < 50 | – | – |
| CCC(NC(=O)[C@@H]1CCCN1C(=O)[C@@H](NC(=O)OC(C)(C)C)C(C)C)P(=O)(Oc1ccc(C)c(C)c1)Oc1ccc(C)c(C)c1 (mixture of isomers) | 1250 | 460 | < 50 | < 50 | – | – |
| CCC(NC(=O)[C@@H]1CCCN1C(=O)[C@@H](NC(=O)OC(C)(C)C)C(C)C)P(=O)(Oc1ccc(OC)cc1)Oc1ccc(OC)cc1 (mixture of isomers) | 9900 | 11000 | < 50 | < 50 | – | – |
| CCC(NC(=O)[C@@H]1CCCN1C(=O)[C@@H](NC(=O)OC(C)(C)C)C(C)C)P(=O)(Oc1ccc(SC)cc1)Oc1ccc(SC)cc1 (mixture of isomers) | 60100 | 165000 | 460 | 365 | – | – |
| CCC(NC(=O)[C@@H]1CCCN1C(=O)[C@@H](NC(=O)OC(C)(C)C)C(C)C)P(=O)(Oc1ccccc1)Oc1ccccc1 (mixture of isomers) | 12700 | 7100 | < 50 | < 50 | – | – |
